pIC50: −log10 of the molar value. Like-named read-outs stand apart in the source and are kept apart here.
Molecular target: human recombinant Btk (Homo sapiens (Human), UniProt Q06187)
Experiment: Btk enzymatic activity assay (Caliper-based kinase assay)
Format: biochemical
Settings: read-out: IC50 (μm)
[1] = human recombinant Btk 2 nM, ATP 40 μM, peptide substrate 1 μM, room temperature 3 h

human recombinant Btk, sequence (Q06187 whole entry): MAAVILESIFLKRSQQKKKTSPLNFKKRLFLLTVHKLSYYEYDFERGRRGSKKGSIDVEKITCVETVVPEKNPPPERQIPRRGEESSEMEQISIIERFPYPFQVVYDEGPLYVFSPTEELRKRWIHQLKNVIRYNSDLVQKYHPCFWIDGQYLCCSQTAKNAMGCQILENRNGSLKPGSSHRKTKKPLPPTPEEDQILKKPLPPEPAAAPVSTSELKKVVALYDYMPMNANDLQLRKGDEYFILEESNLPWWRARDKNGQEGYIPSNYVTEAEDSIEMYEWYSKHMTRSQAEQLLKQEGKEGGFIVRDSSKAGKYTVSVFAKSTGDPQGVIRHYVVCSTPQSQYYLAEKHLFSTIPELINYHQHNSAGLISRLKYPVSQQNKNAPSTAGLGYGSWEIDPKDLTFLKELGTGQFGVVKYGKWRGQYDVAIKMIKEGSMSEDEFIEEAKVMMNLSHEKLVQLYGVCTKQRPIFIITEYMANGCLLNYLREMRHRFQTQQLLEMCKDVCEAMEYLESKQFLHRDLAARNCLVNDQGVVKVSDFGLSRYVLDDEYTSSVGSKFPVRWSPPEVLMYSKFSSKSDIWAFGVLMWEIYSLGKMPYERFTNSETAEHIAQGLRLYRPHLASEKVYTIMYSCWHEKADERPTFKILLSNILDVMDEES
Procedure: A Caliper-based kinase assay (Caliper Life Sciences, Hopkinton, Mass.) was used to measure inhibition of Btk kinase activity of a compound of Formula (I). […] The reaction was then terminated with EDTA, final concentration 20 mM and the phosphorylated reaction product was quantified on a Caliper Desktop Profiler (Caliper LabChip 3000). […] This value is presented as the IC50.

Structure (SMILES): C[C@H](Cn1nc(-c2ccc(Oc3ccccc3)cc2F)c2c(N)ncnc21)NC(=O)C(C#N)=CC(C)(C)N [Cpd 188]
- pIC50 [1]: 9.15

Structure (SMILES): CNC(C)(C)C=C(C#N)C(=O)N1CCC[C@@H]1Cn1nc(-c2ccc(Oc3cccc(F)c3F)cc2F)c2c(N)ncnc21 [Cpd 105A, (R)-2-(2-((4-amino-3-(4-(2,3-difluorophenoxy)-2-fluorophenyl)-1H-pyrazolo[3,4-d]pyrimidin-1-yl)methyl)pyrrolidine-1-carbonyl)-4-methyl-4-(methylamino)pent-2-enenitrile]
- pIC50 [1]: 8.89

Structure (SMILES): N#CC(=CC1CC1)C(=O)N1CCC[C@@H]1Cn1nc(-c2ccc(Oc3c(F)cccc3F)cc2F)c2c(N)ncnc21 [Cpd 44A, (R)-2-(2-((4-amino-3-(2-fluoro-4-(2,6-difluorophenoxy)phenyl)-1H-pyrazolo[3,4-d]pyrimidin-1-yl)methyl)pyrrolidine-1-carbonyl)-3-cyclopropylacrylonitrile]
- pIC50 [1]: 8.30

Structure (SMILES): C[C@@H](Cn1nc(-c2ccc(Oc3ccccc3)cc2F)c2c(N)ncnc21)NC(=O)C(C#N)=CC1CC1 [Cpd 197B]
- pIC50 [1]: 7.49

Structure (SMILES): CC(C)(C=C(C#N)C(=O)N1CCC[C@@H]1Cn1nc(-c2ccc(Oc3ccccc3)cc2F)c2c(N)ncnc21)N1CCOCC1 [Cpd 95A, (R)-2-(2-((4-amino-3-(2-fluoro-4-phenoxyphenyl)-1H-pyrazolo[3,4-d]pyrimidin-1-yl)methyl)pyrrolidine-1-carbonyl)-4-methyl-4-morpholinopent-2-enenitrile]
- pIC50 [1]: 7.58

Structure (SMILES): CC(C)(C=C(C#N)C(=O)N1CCC[C@H]1Cn1nc(-c2ccc(Oc3ccccc3)cc2F)c2c(N)ncnc21)NC1CC1 [Cpd 87B, (S)-2-(2-((4-amino-3-(2-fluoro-4-phenoxyphenyl)-1H-pyrazolo[3,4-d]pyrimidin-1-yl)methyl)pyrrolidine-1-carbonyl)-4-(cyclopropylamino)-4-methylpent-2-enenitrile]
- pIC50 [1]: 7.92

Structure (SMILES): CN(C)C(C)(C)C=C(C#N)C(=O)N1CCC[C@@H]1Cn1nc(-c2ccc(Oc3cccc(F)c3F)cc2F)c2c(N)ncnc21 [Cpd 106A, (R)-2-(2-((4-amino-3-(4-(2,3-difluorophenoxy)-2-fluorophenyl)-1H-pyrazolo[3,4-d]pyrimidin-1-yl)methyl)pyrrolidine-1-carbonyl)-4-(dimethylamino)-4-methylpent-2-enenitrile]
- pIC50 [1]: 8.22

Structure (SMILES): COc1cc(-c2nn(CC3CCCN3C(=O)C(C#N)=CC3CC3)c3ncnc(N)c23)ccc1Oc1ccc(Cl)c(Cl)c1 (stereo not shown) [Cpd 5]
- pIC50 [1]: 9.00

Structure (SMILES): COCCNC(C)(C)C=C(C#N)C(=O)N1CCC[C@H]1Cn1nc(-c2ccc(Oc3ccccc3)cc2F)c2c(N)ncnc21 [Cpd 88B, (S)-2-(2-((4-amino-3-(2-fluoro-4-phenoxyphenyl)-1H-pyrazolo[3,4-d]pyrimidin-1-yl)methyl)pyrrolidine-1-carbonyl)-4-((2-methoxyethyl)amino)-4-methylpent-2-enenitrile]
- pIC50 [1]: 7.54

Structure (SMILES): CN(C)C(C)(C)C=C(C#N)C(=O)N1CCC[C@H]1Cn1nc(-c2ccc(Oc3cccc(F)c3F)cc2F)c2c(N)ncnc21 [Cpd 106B, (S)-2-(2-((4-amino-3-(4-(2,3-difluorophenoxy)-2-fluorophenyl)-1H-pyrazolo[3,4-d]pyrimidin-1-yl)methyl)pyrrolidine-1-carbonyl)-4-(dimethylamino)-4-methylpent-2-enenitrile]
- pIC50 [1]: 8.82

Structure (SMILES): N#CC(=CC1CC1)C(=O)N1CCC[C@H]1Cn1nc(-c2ccc(Oc3c(F)cccc3F)cc2F)c2c(N)ncnc21 [Cpd 44B, (S)-2-(2-((4-amino-3-(2-fluoro-4-(2,6-difluorophenoxy)phenyl)-1H-pyrazolo[3,4-d]pyrimidin-1-yl)methyl)pyrrolidine-1-carbonyl)-3-cyclopropylacrylonitrile]
- pIC50 [1]: 8.52

Structure (SMILES): [C-]#[N+]C(=CC1CC1)C(=O)N1CCC[C@@H](n2nc(-c3ccc(Oc4ccccc4)cc3F)c3c(N)ncnc32)C1 [Cpd 22B]
- pIC50 [1]: 8.59

Structure (SMILES): NC(=O)C(=CC1CC1)C(=O)N1CCC[C@@H](n2nc(-c3ccc(Oc4ccccc4)cc3)c3c(N)ncnc32)C1 [Cpd 30A, (R)-2-(3-(4-amino-3-(4-phenoxyphenyl)-1H-pyrazolo[3,4-d]pyrimidin-1-yl)piperidine-1-carbonyl)-3-cyclopropylacrylamide]
- pIC50: 8.77

Structure (SMILES): CNC(C)(C)C=C(C#N)C(=O)N1CCC[C@H]1Cn1nc(-c2ccc(Oc3cccc(F)c3F)cc2F)c2c(N)ncnc21 [Cpd 105B, (S)-2-(2-((4-amino-3-(4-(2,3-difluorophenoxy)-2-fluorophenyl)-1H-pyrazolo[3,4-d]pyrimidin-1-yl)methyl)pyrrolidine-1-carbonyl)-4-methyl-4-(methylamino)pent-2-enenitrile]
- pIC50 [1]: 7.59

Structure (SMILES): CC(C)(C=C(C#N)C(=O)N1CCC[C@H]1Cn1nc(-c2ccc(Oc3ccccc3)cc2F)c2c(N)ncnc21)N1CCOCC1 [Cpd 95B, (S)-2-(2-((4-amino-3-(2-fluoro-4-phenoxyphenyl)-1H-pyrazolo[3,4-d]pyrimidin-1-yl)methyl)pyrrolidine-1-carbonyl)-4-methyl-4-morpholinopent-2-enenitrile]
- pIC50 [1]: 8.49

Structure (SMILES): N#CC(=CC1CC1)C(=O)N1CCC(n2nc(-c3ccc(Oc4ccccc4)cc3)c3c(N)ncnc32)CC1 [Cpd 3, 2-(4-(4-amino-3-(4-phenoxyphenyl)-1H-pyrazolo[3,4-d]pyrimidin-1-yl)piperidine-1-carbonyl)-3-cyclopropylacrylonitrile]
- pIC50 [1]: 6.76

Structure (SMILES): CCOC(C)(C)C=C(C#N)C(=O)N1CCC[C@H]1Cn1nc(-c2ccc(Oc3ccccc3)cc2F)c2c(N)ncnc21 [Cpd 89B, (S)-2-(2-((4-amino-3-(2-fluoro-4-phenoxyphenyl)-1H-pyrazolo[3,4-d]pyrimidin-1-yl)methyl)pyrrolidine-1-carbonyl)-4-ethoxy-4-methylpent-2-enenitrile]
- pIC50 [1]: 5.18

Structure (SMILES): CCOC(C)(C)C=C(C#N)C(=O)N1CCC[C@@H]1Cn1nc(-c2ccc(Oc3ccccc3)cc2F)c2c(N)ncnc21 [Cpd 89A, (R)-2-(2-((4-amino-3-(2-fluoro-4-phenoxyphenyl)-1H-pyrazolo[3,4-d]pyrimidin-1-yl)methyl)pyrrolidine-1-carbonyl)-4-ethoxy-4-methylpent-2-enenitrile]
- pIC50 [1]: 5.51

Structure (SMILES): N#CC(=CC1CC1)C(=O)NC1CCC(n2nc(-c3ccc(Oc4ccccc4)cc3)c3c(N)ncnc32)CC1 (stereo not shown) [Cpd 11, N-((1s,4s)-4-(4-amino-3-(4-phenoxyphenyl)-1H-pyrazolo[3,4-d]pyrimidin-1-yl)cyclohexyl)-2-cyano-3-cyclopropylacrylamide]
- pIC50 [1]: 7.85

Reference: patent US9572811B2, “Treatment of dry eye” (PRINCIPIA BIOPHARMA INC., priority 2012, dated 2017)
